How the values were obtained:
Assay in all cases: relative viability (nuclei count vs DMSO), 5 days (fraction); higher = more cells survive
XMD13-2 + Olaparib = compound: C1CC1C(=O)NC2=NNC3=C2C=CC(=C3)C4=CC(=CC=C4)C(=O)NC5CC5 [XMD13-2] + O=C(c1cc(Cc2n[nH]c(=O)c3ccccc23)ccc1F)N1CCN(C(=O)C2CC2)CC1 [Olaparib] (partner 8 µM)
Procedure, shortened: (§1)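 Relative viability equals treated-well nuclei counts divided by vehicle-well nuclei counts. Counts came from 4× images of lung cancer cell lines grown in 1536-well plates for 5 days after pin-tool dosing on the day after seeding. Dosing used one drug alone or a fixed anchor-drug dose plus five library-drug doses (not always all listed) in √10 steps, and values are medians of duplicate plates.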

Dasatinib + Luminespib = compound: Cc1nc(Nc2ncc(C(=O)Nc3c(C)cccc3Cl)s2)cc(N2CCN(CCO)CC2)n1 [Dasatinib] + CCNC(=O)c1noc(-c2cc(C(C)C)c(O)cc2O)c1-c1ccc(CN2CCOCC2)cc1 [Luminespib] (partner 0.01 µM)
Procedure, shortened: as §1

XMD13-2 + Linsitinib = compound: C1CC1C(=O)NC2=NNC3=C2C=CC(=C3)C4=CC(=CC=C4)C(=O)NC5CC5 [XMD13-2] + C[C@]1(O)C[C@@H](c2nc(-c3ccc4ccc(-c5ccccc5)nc4c3)c3c(N)nccn32)C1 [Linsitinib] (partner 1 µM)
Procedure, shortened: as §1

Dasatinib + Tozasertib = compound: Cc1nc(Nc2ncc(C(=O)Nc3c(C)cccc3Cl)s2)cc(N2CCN(CCO)CC2)n1 [Dasatinib] + Cc1cc(Nc2cc(N3CCN(C)CC3)nc(Sc3ccc(NC(=O)C4CC4)cc3)n2)n[nH]1 [Tozasertib] (partner 0.1 µM)
Procedure, shortened: as §1

Cell Line	relative viability (XMD13-2 + Olaparib; first compound 0.05 µM)	relative viability (XMD13-2 + Olaparib; first compound 0.1581 µM)	relative viability (XMD13-2 + Olaparib; first compound 0.5 µM)	relative viability (XMD13-2 + Olaparib; first compound 1.581 µM)	relative viability (XMD13-2 + Olaparib; first compound 5 µM)	relative viability (Dasatinib + Luminespib; first compound 0.005 µM)	relative viability (Dasatinib + Luminespib; first compound 0.01581 µM)	relative viability (Dasatinib + Luminespib; first compound 0.05 µM)	relative viability (Dasatinib + Luminespib; first compound 0.1581 µM)	relative viability (Dasatinib + Luminespib; first compound 0.5 µM)	relative viability (XMD13-2 + Linsitinib; first compound 0.05 µM)	relative viability (XMD13-2 + Linsitinib; first compound 0.1581 µM)	relative viability (XMD13-2 + Linsitinib; first compound 0.5 µM)	relative viability (XMD13-2 + Linsitinib; first compound 1.581 µM)	relative viability (XMD13-2 + Linsitinib; first compound 5 µM)	relative viability (Dasatinib + Tozasertib; first compound 0.005 µM)	relative viability (Dasatinib + Tozasertib; first compound 0.01581 µM)	relative viability (Dasatinib + Tozasertib; first compound 0.05 µM)	relative viability (Dasatinib + Tozasertib; first compound 0.1581 µM)	relative viability (Dasatinib + Tozasertib; first compound 0.5 µM)
HARA	0.76	1.11	0.831	0.987	0.643	0.774	0.552	0.413	0.207	0.133	0.934	0.931	0.944	0.972	1.07	0.119	0.133	0.0917	0.0528	0.0523
HCC-15	0.706	0.66	0.785	0.669	0.661	0.381	0.316	0.248	0.247	0.108	0.936	0.869	0.903	0.947	0.599	0.424	0.403	0.338	0.251	0.235
HCC-44	1.01	0.983	0.974	1.03	0.986	1.15	1.01	0.733	0.604	0.453	0.683	0.694	0.697	0.704	0.773	1.19	0.716	0.452	0.75	0.313
HCC-827	0.722	0.661	0.575	0.609	0.421	0.672	0.409	0.335	0.127	0.123	0.873	0.9	0.874	0.9	0.863	0.457	0.409	0.399	0.177	0.101
HOP-62	0.307	0.697	0.391		0.489	0.853	0.858	0.92	0.648	0.485	1.03	0.971	1	1.09	0.913	0.387	0.372	0.393	0.315	0.242
LC-2-ad	0.684	0.716	0.681	0.701	0.718	1.1	1.11	0.86	0.774	0.376	0.927	0.924	0.826	0.769	0.831	0.421	0.366	0.315	0.271	0.249
LCLC-97TM1	0.498	0.507	0.336	0.263	0.173	0.844	0.798	0.901	0.598	0.309	0.206	0.157	0.187	0.176	0.178	0.187	0.211	0.244	0.217	0.159
LCLC-103H	0.764	0.797	0.776	0.846	0.805	0.83	0.88	0.733	0.52	0.275	1	1.1	1.25	1.18	1.14	0.485	0.461	0.453	0.3	0.129
